{
  "source": "patent US20240226226A1",
  "about": "“KAPPA-OPIOID RECEPTOR AGONIST IMPLANTS FOR TREATMENT OF PRURITUS” (Titan Pharmaceuticals, Inc., priority 2021, published 2024)",
  "key": {"[1]": {"test_system": "mice challenged with the pruritogen 5′-GNTI", "test": "Scratching events in mice after 5′-GNTI challenge over an 84-day period, Compound A-containing implants", "type": "in vivo, mouse", "details": "male C57BL/6 mice, one implant (26×2.6 mm, 60 mg Compound A), 5′GNTI 0.1 mg/kg s.c. on Days 28, 56 and 84, initial 30 minutes of observation", "method": "Male C57BL/6 mice (8-14 wks old, N=7-8) were each implanted with one Compound A-containing implant (26×2.6 mm, 50% loading, 60 mg Compound A/implant). Controls were untreated mice or mice implanted with placebo (EVA-only) implants (N=5-7). On Days 28, 56 and 84 post-implantation, the mice were transferred to behavioral rooms during the light cycle, at least 2 hours prior to challenge with the pruritogen 5′-GNTI to minimize stress effects on grooming and movement. 5′GNTI (0.1 mg/kg) was subcutaneously injected just caudal to the head/neck, and the mice were immediately placed in an observation chamber (25×25 cm) with plexiglas walls and light-colored melamine flooring and video recorded from above for up to 90 minutes after pruritogen challenge, and then removed and placed back into their home cages in the housing colony. The video recordings were subsequently analyzed for the quantity of scratching behavior, classified as either a forepaw scratching bout behind the ears, or hind paw scratching bout of the flank/back of the animal, over the initial 30 minutes of observation.\n(D28C=control mice at day 28, D28A=mice with Compound A implants at day 28, D56C=control mice at day 56, D56A=mice with Compound A implants at day 56, D84C=control mice at day 84, D84A=mice with Compound A implants at day 84)."}, "[2]": {"test": "Blood plasma levels from Compound A implants in rats", "type": "in vivo", "details": "one implant per rat, 17.5 mg Compound A", "method": "Ten coextruded implants were prepared having a core comprising 50% of Compound A (as a salt) and 50% ethylene vinyl acetate, and a shell comprising 3% Compound A and 97% ethylene vinyl acetate. The implants measured 26 mm length×1.5 mm diameter, weighed 48 mg, and contained 17.5 mg Compound A. After extrusion, the implants were washed, dried, packaged and sterilized by E-beam irradiation at 25 KGy.\nThe implants were implanted into rats (one implant per rat), and blood plasma levels were measured. After an initial peak from drug on the implant surface, the rat plasma levels were sustained within a range of about 1.4 to about 4 ng/ml for about 2,000 hours (about 83 days)."}, "[3]": {"test_system": "mice challenged with 5′-guanidinonaltrindole (5′GNTI)", "test": "Mouse itch model, 5′GNTI challenge, mouse prototype EVA implants", "type": "in vivo", "details": "male C57BL/6 mice, 1 prototype implant (10 mg Compound A) per mouse", "method": "Compound A implants were formulated in ethylene-vinyl acetate (EVA) matrices for testing in male C57BL/6 mice. Because of the small size of the mouse, test implant prototypes (25 mm×1.5 mm) containing a limited quantity of the drug (10 mg) were used for this mouse model study. […] After extrusion, the implant prototypes were washed, dried, packaged and sterilized by E-beam irradiation at 25 KGy.\nFollowing the implantation of one Compound A implant in each mouse, the treated mice with drug-containing implants (N=5) and untreated control mice with placebo implants or sham surgery (N=7) were challenged with 5′-guanidinonaltrindole (5′GNTI) at Days 1, 14 and 28 post-implantation. Scratch events were monitored."}, "[4]": {"test": "Mouse plasma concentration from EVA mouse prototype implants versus subcutaneous acute injection", "type": "in vivo", "details": "male C57BL/6 mice, one prototype implant per mouse, compared with acute 0.3 mg/kg subcutaneous injection", "method": "Male C57BL/6 mice were sampled for pharmacokinetic analysis following subcutaneous acute injection with Compound A in saline (0.3 mg/kg drug was administered, using an injection volume of 10 mL/kg), or following implantation with one Compound A implant in each mouse. The implants used were as described in Example 2."}},
  "data": [
    {"smiles": "CCCC[C@@H](NC(=O)[C@@H](Cc1ccccc1)NC(=O)[C@H](N)Cc1ccccc1)C(=O)N[C@H](CCCCN(C)C)C(=O)NCc1ccncc1", "note": "[Compound A]", "values": [
      {"measurement": "scratch events versus control mice", "setting": "[1]", "value": "reduced scratch events"},
      {"measurement": "time for which plasma levels were sustained", "setting": "[2]", "value": "2000 hours and about 2,000 hours"},
      {"measurement": "scratching behavior at day 28 post-implantation", "setting": "[3]; 5′GNTI challenge", "value": "returning to control levels"},
      {"measurement": "sustained itch suppression post-implantation", "setting": "[3]; 5′GNTI challenge at Days 1, 14 and 28", "value": "up to 14 days"},
      {"measurement": "plasma concentrations of Compound A over the first 14 days post-implantation", "setting": "[4]", "value": "well above the levels estimated for therapeutic anti-pruritus activity"}
    ]}
  ]
}
